Values joined by “and” are separate entries in the source; they are usually repeats but may differ in a detail not shown here. Identical values can stand only once. Peptide text beside a SMILES is read from it.
Tested on: PC12 cells
Assay: Dopamine release from PC12 cells after dipeptide addition (LC-MS/MS of supernatant)
Format: cell-based
Settings: 6 hours; for Change in dopamine concentration compared to the non-stimulated group / Dopamine concentration after stimulation, Mean ± Standard deviation / Percentage relative to non-stimulated group: 1 mM dipeptide; for Change in dopamine concentration compared to the non-stimulated group: Student's t-test, significance level 5%; for Dopamine concentration after stimulation, Mean ± Standard deviation: 3 wells; for Dopamine concentration after stimulation, Mean ± Standard deviation / Dopamine concentration after stimulation: 37° C., supernatant; for Percentage relative to non-stimulated group: dopamine concentration, non-stimulated group = 100; for Dopamine concentration after stimulation: individual wells, 1 mM dipeptide in medium
Description: PC12 cells were seeded in a 96-well plate at a cell count of 2×10^4 cells/well using DMEM containing 10% by volume of HS (Horse Serum), 10% by volume of FBS (Fetal Bovine Serum), 100 units/mL of penicillin and 100 μg/mL of streptomycin. The cells were cultured at 5% CO2 by volume and 37° C. The cells were cultured for 3 to 5 days to ensure that they were confluent, and then used for experiments.
The culture medium was removed from PC12 cells, which were washed twice with PBS (Phosphate Buffered Saline). The wells of the 96-well plate were divided into 5 groups: non-stimulated group (5 wells), WF administration group (3 wells), WH administration group (3 wells), WM administration group (3 wells) and WR administration group (3 wells). The WR administration group corresponds to Inventive Example, and the non-stimulated group, WF administration group, WH administration group and WM administration group correspond to Comparative Examples.
DMSO (Dimethyl Sulfoxide) was added to the same medium as the medium used to culture PC12 cells, thereby preparing a medium containing 1% by […] of DMSO. Dipeptide WF was added to the same medium as the medium used to culture PC12 cells, thereby preparing a medium containing 1 mM dipeptide WF. In the same way, a medium containing 1 mM dipeptide WH, a medium containing 1 mM dipeptide WM and a medium containing 1 mM dipeptide WR were prepared. The medium containing 1% by volume of DMSO (Dimethyl Sulfoxide) was added to the non-stimulated group, the medium containing 1 mM dipeptide WF was added to the WF administration group, the medium containing 1 mM dipeptide WH was added to the WH administration group, the medium containing 1 mM dipeptide WM was added to the WM administration group, and the medium containing 1 mM dipeptide WR was added to the WR administration group. These groups were incubated at 37° C. for 6 hours. After the incubation, supernatant of each well was collected.
Each supernatant was transferred onto ice. To each supernatant, 25 μL of 2M perchloric acid was added for protein removal, and after 10 minutes, 50 μL of 1M sodium acetate was added for neutralization. After 15 minutes, centrifugation was performed at 4° C. and 20000 G for 20 minutes. 100 μL of each supernatant was collected, and after added with 10 μL of 2 mM 3,4-dihydroxybenzylamine (DHBA) as an internal standard, it was passed through a chromatodisk to obtain a sample. The obtained sample was used for liquid chromatography-tandem mass spectrometry (LC-MS/MS).
LC-MS/MS was performed using a Triple TOF 6600+ system manufactured by SCIEX under the following measurement conditions. A calibration curve was prepared using pure products, and after correcting the peak area of dopamine with the peak area of the internal standard (DHBA), the dopamine concentration (nM) in each sample was calculated from the calibration curve. • Equipment: Triple TOF 6600+ System (SCIEX, Massachusetts, USA) • Column: Inertsil (registered trademark) ODS-4 (GL Sciences, Tokyo, Japan) • Eluent A: 0.1% aqueous solution of formic acid • Eluent B: 0.1% methanol solution of formic acid • Gradient conditions: As listed in Table 1
Data are presented as mean±standard deviation. For statistical processing, Student's t-test was used for comparisons between the non-stimulated group and each administration group. The significance level was set at 5%.

With `N[C@@H](Cc1c[nH]c2ccccc12)C(=O)N[C@@H](Cc1ccccc1)C(=O)O` [WF, tryptophanylphenylalanine] (H-Trp-Phe-OH) as the compound, how does the “Change in dopamine concentration compared to the non-stimulated group” value (from here on “Change … to the non-stimulated group”) read?
Its value is “did not exhibit such a significant increase in dopamine concentration”.

What about the “Dopamine concentration after stimulation, Mean ± Standard deviation” value of the same compound?
Its value is 19.56 ± 1.35 nM.

What about the “Percentage relative to non-stimulated group” value of the same compound?
The value was 83.23%.

And the “Dopamine concentration after stimulation” value?
Its value is 18.97 nM and 18.60 nM and 21.10 nM.

Which “Change … to the non-stimulated group” value does the source give for `N[C@@H](Cc1c[nH]c2ccccc12)C(=O)N[C@@H](Cc1c[nH]cn1)C(=O)O` [WH, tryptophanylhistidine] (H-Trp-His-OH) here?
The value was “did not exhibit such a significant increase in dopamine concentration”.

And the “Dopamine concentration after stimulation, Mean ± Standard deviation” value?
The value was 22.15 ± 4.13 nM.

And the “Percentage relative to non-stimulated group” value?
Its value is 94.26%.

And the “Dopamine concentration after stimulation” value?
Its value is 26.89 nM and 19.36 nM and 20.20 nM.

What does the source list for `CSCC[C@H](NC(=O)[C@@H](N)Cc1c[nH]c2ccccc12)C(=O)O` [WM, tryptophanylmethionine] (H-Trp-Met-OH)?
Change in dopamine concentration compared to the non-stimulated group: did not exhibit such a significant increase in dopamine concentration; Dopamine concentration after stimulation, Mean ± Standard deviation: 24.57 ± 7.88 nM; Percentage relative to non-stimulated group: 104.55%; Dopamine concentration after stimulation: 20.58 nM and 19.48 nM and 33.64 nM

Which “Change … to the non-stimulated group” value does the source give for `N=C(N)NCCC[C@H](NC(=O)[C@@H](N)Cc1c[nH]c2ccccc12)C(=O)O` [WR, tryptophanylarginine] (H-Trp-Arg-OH) here?
Its value is “significant increase in dopamine concentration”.

What about the “Dopamine concentration after stimulation, Mean ± Standard deviation” value of the same compound?
Its value is 36.24 ± 2.10 nM.

And the “Percentage relative to non-stimulated group” value?
The value was 154.23%.

And the “Dopamine concentration after stimulation” value?
The value was 38.47 nM and 34.30 nM and 35.95 nM.
